This is an account of results in US6779468B1, “Method and pharmaceutical composition for iron delivery in hemodialysis and peritoneal dialysis patients” (priority 1997, dated 2004).

For data set [1] the following is noted: literature reports; cited from earlier work.
Data set [2] is described as follows: Phase I/II clinical study of dialysate iron in maintenance hemodialysis patients. The format is in vivo, human. The following applies: for reticulocyte hemoglobin (Retic-Hgb): month 2. On the procedure: All subjects in the study were receiving maintenance hemodialysis for end stage kidney failure, and requiring erythropoietin and intravenous iron to maintain hemoglobin in the 10-12 gm/dl range. After obtaining an informed consent, patients were enrolled and oral iron was discontinued. All patients received maintenance intravenous iron (50-100 mg every 1-2 weeks) during a 4 week long pre-treatment phase. The last two weeks of this pre-treatment period were used to establish the “Baseline” serum iron and hematological parameters. In the Treatment Phase, ten patients were dialyzed with iron containing dialysate (Dialysate-Fe group) for a period of 4 months. […] Eleven control patients (IV-Fe Group) continued to receive 50-200 mg iron intravenously every 1-2 weeks, for the entire study period of 6.5 months.
The initial doses were 50 mg elemental iron weekly.
Increased availability of iron to marrow cells may improve responsiveness to erythropoietin, thereby raising the hemoglobin and hematocrit. Hemoglobin and hematocrit were monitored every week, and in the event of improved erythropoiesis, the doses of erythropoietin were reduced by 10% every two weeks or as needed, to maintain a stable hemoglobin.
According to the National Kidney Foundation-Dialysis Outcomes Quality Initiative (NKF-DOQI) recommendations, most hemodialysis patients should be administered intravenous iron with every dialysis session or every 1-2 weeks (maintenance therapy). […] This was the basis why the control group was maintained on regular doses of intravenous iron, while oral iron was discontinued. This being the standard of care, the subjects on maintenance intravenous iron (IV-Fe Group) served as the control against the experimental group receiving dialysate iron therapy (Dialysate-Fe Group).
A random number generator was used to generate a list of 24 numbers. Odd and even numbers were assigned A or B designation respectively. A list of 23 patients was created based on the order in which consent was obtained for participation in the study. Patients were assigned to groups A or B based on their order in the list.
When a relative iron deficiency was suspected bolus doses of 100-200 mg iron were administered intravenously with each dialysis, over 1-5 consecutive dialysis sessions.
Based on the NKF-DOQI guidelines, patients in IV-Fe group were prescribed maintenance amount of intravenous iron from 25 to 100 mg/week. When a relative iron deficiency was suspected, bolus doses of 100-200 mg iron were administered intravenously with each dialysis, over 5-10 consecutive dialysis sessions.
Except for plotting of individual patient variables over time, the iron study data has been summarized prior to analysis. Descriptive analysis was performed. Most of the analysis presented here, uses the data averaged over four or six/seven week intervals. A four week interval corresponds to the length of time each dose level was used during the dose escalation phase of the study. […] (See Figures 4-21)
The baseline period, labeled month 0, included data for the four weeks immediately prior to the start of the intervention. (There was some data available for some or all the fifth week prior to the intervention, but data from this week is omitted from the formal data analysis.)
Weeks 1 to 4, when the dialysate dose of 2 μg/dl was employed, are labeled month 1, weeks 5 to 8 labeled month 2, weeks 9 to 12 labeled ‘month 3’, weeks 13 to 16 labeled month 4, weeks 17 to 20 labeled month 5, and weeks 21 to 26 (or 27) are labeled month 6.

[3] abbreviates: baseline, before treatment phase.

Where “and” joins values, the source holds several entries; their conditions need not be identical. Equal values may be shown once. Entries after “also recorded” stand apart in the source; their conditions may differ. Some results are limits rather than exact numbers.

As to `O=P([O-])([O-])OP(=O)([O-])[O-].[Sn+2].[Sn+2]` [stannous pyrophosphate], the “hypocalcemia / toxic effects” value in data set [1] is “hypocalcemia and immediate toxic effects”.
Regarding Ferric pyrophosphate, in data set [2] (at 6 months, p<0.05), the “TIBC adjusted for the baseline values, versus IV-Fe group” value is given as “significantly higher”. In data set [2] (setting [3]), the “serum ferritin (mean±S.D.)” value was found to be 154 ± 120 µg/L and the “total iron binding capacity (TIBC, mean±S.D.)” value is 222.3 ± 43.8 µg/dL. Further, the hematocrit cycling result in data set [2] (dialysate route during every dialysis session) is reported as “abolishes hematocrit cycling”. Also, in data set [2], the “reticulocyte hemoglobin (Retic-Hgb)” value is 28.4 ± 0.9 pg. In addition, in data set [2] (month 6), the “average weekly dose of intravenous iron” value came to 8.9 mg, the “patients requiring additional intravenous iron supplements” value is recorded as 2 out of the 10 and the “serum ferritin (mean±S.D.)” value turned out to be 154 ± 120 µg/L. Also, in data set [2] (over a period of 6 months), the maintenance of hemoglobin entry is listed as “maintains hemoglobin without an increase in erythropoietin requirement”, the “patients in whom iron balance is maintained without supplemental oral or intravenous iron” value is listed as “approximately 80%” and the “reduction of requirements for intravenous iron” value is listed as “about 80%”. In addition, in data set [2] (pretreatment period (month 0, baseline), all patients on maintenance intravenous iron), the “average weekly dose of intravenous iron” value is on record as 68.7 mg. Further, the “requirement for intravenous iron” value in data set [2] (p≦0.002 with 8-12 μg/dl dialysate iron) is “significantly reduced; also recorded: decline in intravenous iron requirement”. Also, the “serum Fe and transferrin saturation” value (at 30 minutes of peritoneal dialysis, dialysate iron 500 μg/dl, day 21, P<0.03) is recorded as “significant increase”. In addition, where the note is “iron deficient rabbits, dialysate iron 500 μg/dl, day 21”, the “time for mean serum iron and transferrin saturation to increase into the normal range” value was at most 30 min. Besides, where the note is “peritoneal dialysis for a total of 2 hours”, the “duration of increase in serum iron and transferrin saturation” value is “sustained for the duration of the experiment”.
For iron dextran [reference compound], the “serum ferritin (mean±S.D.)” value in data set [2] (setting [3]) and in data set [2] (month 6) was 261 ± 211 µg/L in each case. Besides, the “total iron binding capacity (TIBC, mean±S.D.)” value in data set [2] (setting [3]) was determined as 192.7 ± 48.1 µg/dL. In data set [2], the “reticulocyte hemoglobin (Retic-Hgb)” value turned out to be 27.0 ± 1.0 pg. For the same compound, the “average weekly dose of intravenous iron” value in data set [2] (month 6) is 56.2 mg; in data set [2] (pretreatment period (month 0, baseline), all patients on maintenance intravenous iron, listed as IV-Fe), 59.6 mg and 68.7 mg.
